One data set relates to inflammation model. In words: Inflammation model.
For data set [1], the system named is patients in the accelerated stage of ALS. The experiment in a line: Clinical study, ALSFRS-R scoring of patients in the accelerated stage of ALS. The class given is in vivo, human. Particulars: 9 g/day ethyl ester vs placebo, 24 weeks, FIG. 2. The source says:
As used herein, the term “accelerated stage of ALS” refers to patients whose diseases progression has evidenced a more substantial loss of muscular functionality. For the purposes of this application, such is identified as having a natural history score of 37 or less.
In this example, the same 41 patients diagnosed with ALS used in Comparative Example 1 were used. […] Each cohort received three 1 gram pills t.i.d. at breakfast, lunch and dinner for a total of 9 pills.
After 24 weeks, each patient in each cohort were retested using the ALSFRS-R scoring test. The scores were then averaged for each cohort and the results are found in FIG. 2.

Data set [2] has as its system patients in the incipient stage of ALS. The experiment in a line: Clinical study, ALSFRS-R scoring of patients in the incipient stage of ALS. It is filed as in vivo, human. Particulars: for patients showing a better rate of decline (cut-off −11 change from baseline in ALSFRS-R): incipient stage, scored at 48 weeks. The source says:
This rating scale evaluated 12 different components on a 0 (worse) to 4 (best) scale where the components are speech, salivation, swallowing, handwriting, […], food handling, dressing and hygiene, turning in bed, […], climbing stairs, dyspnea, orthopnea, and respiratory insufficiency. As used herein, patients diagnosed with ALS are first evaluated to determine their natural history which measures the extent of loss of muscular functional due to the disease prior to initiation of therapy.
In this example, 41 patients diagnosed with ALS were tested to ascertain their natural history. Of these 41 patients, 23 scored above 38 points in the ALSFRS-R scoring test and were assigned as having incipient ALS. […] Each cohort received three 1 gram pills t.i.d. (“.three times a day”) at breakfast, lunch and dinner for a total of 9 pills.
After 24 weeks, each patient in each cohort were retested using the ALSFRS-R scoring test. The scores were then averaged for each cohort and the results are found in FIG. 1.
Each cohort received three 1 gram pills t.i.d. (“.three times a day”) at breakfast, lunch and dinner for a total of 9 pills.
After 48 weeks, each patient in each cohort were retested using the ALSFRS-R scoring test. The scores were then averaged.

The conditions of data set [3]: average diet, about 14 grams linoleic acid per day; cited from earlier work.

“Also recorded” adds a separate entry of the source.

As for `[2H]C([2H])(/C=C\CCCCC)/C=C\C([2H])([2H])/C=C\C([2H])([2H])/C=C\CCCC(=O)O` [7,7,10,10,13,13-D6-arachidonic acid], the “activity relative to 13,13-D2-arachidonic acid” value with inflammation model is recorded as “a little more than twice as active”. Take `[2H]C([2H])(/C=C\CCCCC)/C=C\CCCCCCCC(=O)OCC`: in data set [1], the “loss of muscular functionality (ALSFRS-R, cohort average)” value was “substantially less loss of muscular functionality”. Moreover, the “change in ALSFRS-R scores (loss of functionality), cohort average” value in data set [2] (incipient stage ALS, about 9 g/day ethyl ester (8.64 g acid) vs placebo, 24 weeks, FIG. 1) was “do not evidence a significant change; also recorded: minimal loss of functionality”. As to `[2H]C([2H])(/C=C\CCCCC)/C=C\CCCCCCCC(=O)O` [11,11-D2-linoleic acid], the “patients showing a better rate of decline (cut-off −11 change from baseline in ALSFRS-R)” value in data set [2] (placebo for 24 weeks, then 8.64 g/day for 24 weeks) is 40%; in data set [2] (treated with 8.64 g/day for 48 weeks), 70%. As for `CCCCC/C=C\C/C=C\CCCCCCCC(=O)O` [linoleic acid], the “portion of linoleic acid consumed hepatically converted to arachidonic acid” value in data set [3] is “about 10%”.
